Experimental data from paper PMC3606823 (Journal of biomolecular screening, 2012).
Read-outs that look alike come from different tables or passages of the source.

Key:
human DDAH1 [1] = target: T1, human DDAH1 (Homo sapiens, UniProt O94760); assay: Colorimetric L-citrulline assay with ADMA as substrate; type: biochemical
human DDAH1 [2] = target: T1, human DDAH1; assay: Secondary fluorimetric CPM assay with SMTC as substrate; type: biochemical; details: for time-dependent inhibition (mode of inhibition): 50 μM compound, 30 nM enzyme, fluorometric CPM assay; for IC50: inhibition of human DDAH1, CPM assay, 30 nM DDAH, 100 μM SMTC; for confirmation as DDAH inhibitor in the validation assay: known DDAH inhibitors
DDAH = details: enzyme isolated from rat kidney homogenates; cited from earlier work
human DDAH1 [3] = target: T1, human DDAH1; details: cited from earlier work
[4] = system: primary microvascular endothelial cells (HMVECs); assay: L-citrulline assay in cell lysates; type: cell-based; details: 1 mM L-Arginine for 24 hours vs vehicle, p<0.05
[5] = screening with recombinant human DDAH1, assay format not given

T1 sequence (O94760 whole entry): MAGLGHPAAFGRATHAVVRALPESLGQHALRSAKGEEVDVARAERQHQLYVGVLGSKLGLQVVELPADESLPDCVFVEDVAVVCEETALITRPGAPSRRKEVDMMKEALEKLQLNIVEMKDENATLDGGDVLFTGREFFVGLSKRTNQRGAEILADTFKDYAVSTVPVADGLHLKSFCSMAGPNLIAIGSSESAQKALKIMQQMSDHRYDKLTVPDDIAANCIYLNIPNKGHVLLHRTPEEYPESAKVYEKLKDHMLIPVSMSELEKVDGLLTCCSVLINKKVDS

Work on `C[CH2][Hg][S]c1ccccc1C(=O)[O-].[Na+]` [Thimerosal] yielded an IC50 (human DDAH1 [1]; [5]) of 460 nM.

For `Cn1c(=O)c2[nH]cnc2n(C)c1=O.[CH2-]C(Cc1cccc2cc(C(=O)O)c(=O)oc12)OC.[Hg+2].[OH-]` (centres unmarked) [Cumertilin], the inhibition (human DDAH1 [1]; at 25μM, screening with recombinant human DDAH1) was 100%.

In the case of `CC(=O)[O][Hg][c]1ccccc1` [phenylmercuric acetate], the “time-dependent inhibition (mode of inhibition)” value (human DDAH1 [2]) is reported as “progressive inhibition”, the IC50 (human DDAH1 [2]) is reported as less than 780 nM and the IC50 (human DDAH1 [1]; [5]) is reported as less than 780 nM.

In the case of `O=C(O)c1cc[c]([Hg][Cl])cc1` [chloromercuribenzoate, 4-chloromercuribenzoic acid], the “time-dependent inhibition (mode of inhibition)” value (human DDAH1 [2]) is given as “progressive inhibition”, the “confirmation as DDAH inhibitor in the validation assay” value (human DDAH1 [2]) is given as “confirmed” and the “sensitivity of the enzyme to the compound” value (DDAH) is given as “sensitive”.

For `CN(C)C(N)=NCCC[C@H](N)C(=O)O` [ADMA, Asymmetric Dimethylarginine], the Km (human DDAH1 [1]) was 180 µM and the kcat (human DDAH1 [1]; ADMA as substrate, 0.3 μM DDAH, 500 μM ADMA, 4 hours at 37°C) was ~ 0.7 min^−1.

In the case of `[Cl][Hg][Cl]` [mercury chloride], the “sensitivity of the enzyme to the compound” value (DDAH) is given as “sensitive”.

For `CSC(N)=NCCC[C@H](N)C(=O)O` [SMTC, S-methyl-L-thiocitrulline], the kcat (human DDAH1 [3]; SMTC as substrate at 100 μM) is listed as ~ 1 min^−1 and the Km (human DDAH1 [3]; SMTC as substrate) is listed as 1 µM.

For `N=C(N)NCCC[C@H](N)C(=O)O` [L-Arginine], the “amount of intracellular L-citrulline” value [4] was “increased the amount of intracellular L-citrulline significantly”.

With `CN=c1nc(-c2ccccc2)n(-c2ccccc2)s1` [SCH-202676] the IC50 (human DDAH1 [2]) was 13300 nM.

With `O=c1c2ccccc2[se]n1-c1ccccc1` [ebselen] the “confirmation as DDAH inhibitor in the validation assay” value (human DDAH1 [2]) was “confirmed” and the IC50 (human DDAH1 [1]) was 3900 nM.
